Laboratory results as given in patent publication US10611740B2, “Aryl dihydro-2H-benzo[b][1,4]oxazine sulfonamide and related compounds for use as agonists of RORγ and the treatment of disease” (Lycera Corporation, priority 2015, dated 2020).

Columns and labels:
[1] = target: T1, RORγ-LBD (Homo sapiens, UniProt P51449); assay: RORγ-Ligand Binding Domain (LBD) TR-FRET Assay; assay type: biochemical;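 for TR-FRET Assay Max Response: 665/615 nm ratio relative to signal without ursolic acid or compound set at 100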
T1 construct: made in house; host or cells: SF9 cells (baculovirus)
T1 sequence (P51449 269-508 limits assumed): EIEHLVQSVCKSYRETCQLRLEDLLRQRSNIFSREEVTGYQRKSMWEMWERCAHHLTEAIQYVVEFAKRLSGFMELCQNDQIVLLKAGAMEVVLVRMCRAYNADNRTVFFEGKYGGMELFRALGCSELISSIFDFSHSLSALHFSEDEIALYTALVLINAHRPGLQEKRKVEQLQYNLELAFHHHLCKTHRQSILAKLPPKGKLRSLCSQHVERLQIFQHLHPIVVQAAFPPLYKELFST
Method in brief: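 Lysate from SF9 cells expressing His-RORγ-LBD is diluted to about 3 nM final in 50 mM Tris pH 7.0 assay buffer. A biotin-tagged SRC1 LXXLL peptide goes in at 200 nM final, plus ursolic acid at 2 μM final. Test compounds carry 1% DMSO final; signal read by TR-FRET.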

[2] = target: T2, Gal4-RORγ-LBD (Homo sapiens, UniProt P51449); assay: Gal4-RORγ Luciferase Reporter Assay in HEK-293T Cells; assay type: cell-based; settings: HEK-293 cells, luciferase reporter, with 2 μM ursolic acid
T2 construct: expressed in transfected cells; host or cells: HEK-293 cells (pcDNA3.1neo plasmid)
T2 sequence (P51449 269-508 limits assumed): T1 sequence (P51449 269-508 limits assumed)
Method in brief: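 In transfected HEK-293 cells (Gal4-RORγ-LBD, Gal4-luciferase), test agents with 2 μM ursolic acid were incubated overnight at 37 °C before luminescent detection. Values are relative to the ursolic-acid-free, compound-free signal (100).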

SMILES	EC50 [1] [nM]	TR-FRET Assay Max Response [1]	EC50 [2] [nM]	Gal4-RORγ Assay Max Response [2]
O=S(=O)(c1cccc(C(F)(F)F)c1)N1C[C@H](CCCO)Oc2ccc(-c3ccc(F)cc3F)cc21 [Compound 34A, (S)-3-(6-(2,4-difluorophenyl)-4-((3-(trifluoromethyl)phenyl)-sulfonyl)-3,4-dihydro-2H-benzo[b][1,4]oxazin-2-yl)propan-1-ol]	< 500	**** (The symbol “****” indicates a value greater than 200)	< 500	* (The symbol “*” indicates a value in the range of 25 to 90)
O=S(=O)(c1cccc(C(F)(F)F)c1)N1C[C@H](CCCO)Oc2ccc(-c3ccc(F)c(F)c3)cc21 [Compound 34B, (S)-3-(6-(3,4-difluorophenyl)-4-((3-(trifluoromethyl)phenyl)-sulfonyl)-3,4-dihydro-2H-benzo[b][1,4]oxazin-2-yl)propan-1-ol]	< 500	**** (The symbol “****” indicates a value greater than 200)	< 500	* (The symbol “*” indicates a value in the range of 25 to 90)
O=S(=O)(c1cccc(C(F)(F)F)c1)N1C[C@H](CCCO)Oc2ccc(-c3cc(F)cc(F)c3)cc21 [Compound 34C, (S)-3-(6-(3,5-difluorophenyl)-4-((3-(trifluoromethyl)phenyl)-sulfonyl)-3,4-dihydro-2H-benzo[b][1,4]oxazin-2-yl)propan-1-ol]	< 500	**** (The symbol “****” indicates a value greater than 200)	< 500	** (The symbol “**” indicates a value in the range of greater than 90 to 150)
O=S(=O)(c1cccc(C(F)(F)F)c1)N1C[C@H](CCCO)Oc2ccc(-c3cccc(Cl)c3)cc21 [Compound 34D, (S)-3-(6-(3-chlorophenyl)-4-((3-(trifluoromethyl)phenyl)sulfonyl)-3,4-dihydro-2H-benzo[b][1,4]-oxazin-2-yl)propan-1-ol]	< 500	**** (The symbol “****” indicates a value greater than 200)	< 500	** (The symbol “**” indicates a value in the range of greater than 90 to 150)
CN(C)c1cccc(-c2ccc3c(c2)N(S(=O)(=O)c2cccc(C(F)(F)F)c2)C[C@H](CCCOc2noc(=O)[nH]2)O3)n1 [Compound 35, (S)-3-(3-(6-(6-(dimethylamino)pyridin-2-yl)-4-((3-(trifluoromethyl)phenyl)sulfonyl)-3,4-dihydro-2H-benzo[b][1,4]oxazin-2-yl)propoxy)-1,2,4-oxadiazol-5(4H)-one]	< 500	**** (The symbol “****” indicates a value greater than 200)	< 500	** (The symbol “**” indicates a value in the range of greater than 90 to 150)
O=c1[nH]c(OCCC[C@H]2CN(S(=O)(=O)c3cccc(C(F)(F)F)c3)c3cc(-c4cc(F)cc(F)c4)ccc3O2)no1 [Compound 36A, (S)-3-(3-(6-(3,5-difluoro-phenyl)-4-((3-(trifluoro-methyl)phenyl)sulfonyl)-3,4-dihydro-2H-benzo[b][1,4]-oxazin-2-yl)propoxy)-1,2,4-oxadiazol-5(4H)-one]	< 500	**** (The symbol “****” indicates a value greater than 200)	< 500	**** (The symbol “****” indicates a value greater than 200)
COc1cccc(-c2ccc3c(c2)N(S(=O)(=O)c2cccc(C(F)(F)F)c2)C[C@H](CCCOc2noc(=O)[nH]2)O3)c1 [Compound 36B, (S)-3-(3-(6-(3-methoxyphenyl)-4-((3-(trifluoromethyl)phenyl)-sulfonyl)-3,4-dihydro-2H-benzo[b][1,4]oxazin-2-yl)propoxy)-1,2,4-oxadiazol-5(4H)-one]	< 500	**** (The symbol “****” indicates a value greater than 200)	< 500	** (The symbol “**” indicates a value in the range of greater than 90 to 150)
